Data as given in paper PMC7911516, “Investigation of the Factors Responsible for the Poor Oral Bioavailability of Acacetin in Rats: Physicochemical and Biopharmaceutical Aspects” (Pharmaceutics, 2021).
Values after ≈ are worked out from the molar mass of the structure shown. Read-outs that look alike come from different tables or passages of the source.

What was measured:
[1] = Equilibrium solubility in water, pH 7.4 phosphate buffer, SGF and SIF; format: physicochemical
Method: Simulated gastric fluid (SGF) consisted of 0.2% (w/v) sodium chloride, 0.32% (w/v) pepsin, and 0.7% (v/v) HCl (final pH = 1.2). Simulated intestinal fluid (SIF) was prepared by dissolving 3 mM sodium taurocholate and 0.1% (w/v) pancreatin in phosphate buffer (final pH = 7.0). The solubility of acacetin was measured by adding excessive amounts of acacetin into glass vials containing 1.5 mL of water, pH 7.4 phosphate buffer, SGF, and SIF. The mixtures were allowed to reach equilibrium in a shaking incubator (FINEPCR, Gyeonggi-do, South Korea) at 500 rpm at 37 °C for 48 h. The samples were centrifuged at 16,000× g for 5 min, and the supernatant was passed through a 0.20-μm syringe filter to remove excess acacetin. Further, the concentration of acacetin in the filtrate was determined using the LC-MS/MS method. The distribution coefficients of acacetin in water (log P) and pH 7.4 phosphate buffer (log D7.4) were determined using an octanol–water system at 25 ± 0.5 °C. The two phases were pre-saturated with each other by vigorous vortex-mixing for 15 min and further stabilized overnight for phase separation. A certain amount of acacetin (less than its solubility) was dissolved in the pre-saturated octanol, vortex mixed with the same volume of pre-saturated water for 1 h, shaken for 24 h, and further centrifuged at 16,000× g for 30 min. Finally, the acacetin concentrations in the octanol and water layers were determined using the LC-MS/MS method. The membrane permeability of acacetin and reference compounds (verapamil as a reference for high permeability and ranitidine as a reference for low permeability) was assessed by parallel artificial membrane permeability assay (PAMPA). The PAMPA was conducted using a commercially available PAMPA kit (GIT PAMPA Double Sink; pION Inc., Massachusetts, MA, USA) according to the manufacturer’s protocol. The permeability was calculated using pION PAMPA Explorer ver. 3.8 software (pION Inc., Massachusetts, MA, USA).

[2] = Unbound fraction by rapid equilibrium dialysis; format: in vitro ADME, rat
Method: The fractions of unbound acacetin in plasma (fuP), microsomes (fuMIC), SGF (fuSGF), and SIF(fuSIF) were measured using a rapid equilibrium dialysis device (Thermo Fisher Scientific, Inc., Waltham, MA, USA) as previously described with slight modifications. Briefly, 0.2 mL of the matrix spiked with acacetin (10 μM) was placed into the “sample” chamber, and 0.4 mL of PBS was placed into the adjacent “buffer” chamber. The fractions of unbound acacetin were calculated as the concentration ratio between the two chambers. The blood-to-plasma concentration ratio (RB) of acacetin was determined as described previously. Briefly, 1-mL blood spiked with acacetin (1 μM) was incubated at 37 °C for 30 min. The blood sample was centrifuged at 2000× g for 5 min to prepare the plasma sample. The concentrations of acacetin in the aforementioned plasma and buffer samples were measured using the LC-MS/MS method.

[3] = In situ closed-loop study (jejunal loop); format: in vivo, rat
Method: The in situ closed-loop study was performed as previously described with slight modification. Briefly, after minimal abdominal incision under light ether anesthetization and sufficient washing of the contents within the GI tract, the jejunal loop was closed by ligation performed at approximately 2 cm distal to both ends of each jejunal section. Acacetin suspension (final concentration: 1 mg/mL) was prepared by dispersing acacetin powder in the vehicle solution for oral study and subsequently diluting it 5-fold with the SIF (final composition: 2% DMSO, 1% EtOH, and 17% PEG400 in the SIF). After injecting 0.2 mL of acacetin suspension into each loop using a l-mL 31-gauge syringe, the whole GI tract was carefully returned to its original position in the abdominal cavity. At 4 h after the injection, each loop was removed, transferred into a beaker containing 50 mL of methanol, and handled similar to the GI samples in the in vivo pharmacokinetic study. As control (in vitro isolated loop) groups, the jejunal closed-loop was prepared in the same manner as the in situ loop study, removed from the rat intestinal tract using scissors with special care not to damage the loop, and transferred to a glass beaker. Then, acacetin dispersed in the vehicle was injected into the isolated loop. After 0-h and 4-h incubation at 37 °C, the remaining fraction of acacetin in the isolated loop was measured in the same manner as the procedure for the GI sample in the in vivo pharmacokinetic study.

[4] = Michaelis–Menten metabolic kinetics in RLM with NADPH and UDPGA; format: in vitro ADME, rat; settings: NADPH and UDPGA/alamethicin
Method: To investigate hepatic phase I enzymes- and UGT-dependent metabolism of acacetin, the disappearance rate of acacetin at concentrations of 1–200 µM in RLM was measured in the presence of both NADPH and UDPGA. The substrate (acacetin) concentration ((S); µM) versus the initial metabolic rate (V; nmol/min/mg protein) profiles were interpreted based on Michaelis–Menten kinetics, and relevant parameters were estimated via nonlinear regression analysis (GraphPad Prism ver. 5.01; GraphPad Software, San Diego, CA, USA) using the following Michaelis–Menten equation: V = Vmax× [S]/Km× [S] where Km and Vmax are the Michaelis–Menten constant and maximal metabolic rate, respectively. The unbound intrinsic metabolic clearance (CLint) was calculated as Vmax/(Km × fuMIC). Furthermore, the disappearance of acacetin (20 μM) in the absence or presence of specific CYP isoform-selective inhibitors in RLM was determined to study the hepatic CYP-mediated metabolism of acacetin. Microsomal incubation mixtures (total volume of 200 μL) were prepared as follows: RLM (0.5 mg/mL microsomal protein), 1 mM NADPH, 10 mM MgCl2, 50 mM potassium phosphate buffer, acacetin, with or without CYP isoform-selective inhibitors (10 μM NF for rat CYP1A, 10-μM SPZ for rat CYP2C, 10-μM QND for rat CYP2D, and 10-μM KCZ for rat CYP3A). At 0 and 5 min after initiating the metabolic reaction, a 100-μL aliquot of the incubation mixture was taken, transferred into a clean 1.5 mL microcentrifuge tube containing 100 μL cold acetonitrile to terminate the metabolic reaction, and finally treated in the same manner as described for the tissue S9 fraction samples.

COc1ccc(-c2cc(=O)c3c(O)cc(O)cc3o2)cc1 [acacetin, Acacetin]
solubility at 48 h ([1]; aqueous buffer, thermodynamic from solid, pH 7.4 phosphate buffer, 37 °C, 48 h, read-out: Solubility, pH 7.4 phosphate buffer): 0.0121 ± 0.0011 µg/mL (≈ 0.0426 µM) | solubility at 48 h ([1]; fassgf or other biorelevant, thermodynamic from solid, SIF pH 7.0, 37 °C, 48 h, read-out: Solubility, SIF): 0.119 ± 0.008 µg/mL (≈ 0.419 µM) | solubility at 48 h ([1]; pH 7 phosphate buffer, SGF and SIF, pH 7, in abstract, read-out: Solubility in pH 7 phosphate buffer and simulated GI fluids): ≤ 0.119 µg/mL | solubility at 48 h ([1]; simulated gastric fluid, thermodynamic from solid, SGF pH 1.2, 37 °C, 48 h, read-out: Solubility, SGF): 0.0593 ± 0.0071 µg/mL (≈ 0.209 µM) | solubility at 48 h ([1]; thermodynamic from solid, water, 37 °C, 48 h, read-out: Solubility, Water): 0.0401 ± 0.0073 µg/mL (≈ 0.141 µM) | solubility at 48 h ([1]; water, pH 7.4 phosphate buffer, SGF and SIF, pH 7.4, upper bound over all four media, read-out: Solubility in water, pH 7.4 buffer, SGF, and SIF): ≤ 0.119 µg/mL | fraction unbound at 10 μM ([2]; SGF, 10 μM, read-out: fuSGF (fraction unbound in SGF)): 0.822 ± 0.026 | fraction unbound at 10 μM ([2]; SIF, 10 μM, read-out: fuSIF (fraction unbound in SIF)): 0.714 ± 0.009 | fraction unbound at 10 μM ([2]; Sprague-Dawley, rat, liver microsomes (RLM), RLM, 10 μM, read-out: fuMIC (fraction unbound in microsomes)): 0.302 ± 0.021 | fraction unbound at 10 μM ([2]; Sprague-Dawley, rat, plasma and liver microsomes (RLM), range over plasma and RLM, read-out: Unbound fraction in plasma and RLM): 0.00901 to 0.317 | fraction unbound at 10 μM ([2]; Sprague-Dawley, rat plasma, 10 μM, read-out: fuP (fraction unbound in plasma)): 0.0102 ± 0.0011 | fraction unbound at 10 μM ([2]; range over SGF and SIF, read-out: Unbound fraction in SGF and SIF): 0.707 to 0.849 | Fraction of dose eliminated by GI and hepatic first-pass metabolism ([3]; = 2.9 − 2.34): 0.56 % of the dose | Fraction unabsorbed from the GI tract ([3]; =100 − 2.9): 97.1 % of the dose | Portion absorbed from the loop ([3]; difference isolated loop vs in situ loop): 2.9% | Remaining fraction in the in vitro isolated loop ([3]; jejunal loop, 4-h incubation at 37 °C): 78.9% | Remaining fraction in the in situ loop ([3]; rat jejunal loop, 4 h after injection): 76.0% | Vmax [4]: 95.0 ± 5.6 nmol/min/mg protein | Km ([4]; 1–200 µM): 187 ± 14 µM | microsomal CLint ([4]; Sprague-Dawley, rat, liver microsomes (RLM)): 508 ± 9 µL/min/mg
